Measured values taken from article PMC7772889, “Integrating biokinetics and in vitro studies to evaluate developmental neurotoxicity induced by chlorpyrifos in human iPSC-derived neural stem cells undergoing differentiation towards neuronal and glial cells” (Reproductive Toxicology (Elmsford, N.y.), 2020).

Columns and labels:
[1] = Chemical solubility and stability / recovery from medium (HPLC-UV); format: physicochemical
Description: The solubility and stability of CPF in water, medium and DMSO (the vehicle used to prepare stock solutions), were checked in preliminary assays, mimicking the actual experimental conditions: maximum concentration used; 37 °C; controlled pH; different incubation times. Samples in amber glass vials with screw caps were stored at −80 °C until the analysis for quantifying CPF by means of HPLC-UV was carried out.
Plastic-bound fraction was injected as such.

[2] = Cross-contamination among wells; format: physicochemical
Description: In the adjacent wells to those containing CPF, at the applied concentrations, a corresponding amount of DMSO (vehicle control) was added. At the end of the experiment, the content of these control wells was stored at −80 °C until HPLC analysis. The CPF content in control wells served as an indication of possible contamination across wells, due to CPF evaporation.

Adsorption to plastic = format: in vitro ADME
Description: Since CPF is a lipophilic chemical, its potential adsorption to the plastic wells was evaluated during the kinetic experiments. At the end of each experiment, the content (cells and medium) of each sample well was removed. Wells were washed twice with PBS, to remove possible cellular debris and 3 mL methanol (MeOH) were added. The plate was sealed with Parafilm and kept under gentle shaking at room temperature for 2h, before transferring the complete volume into amber glass vials with screw caps. The fractions were stored at −80 °C until HPLC analysis.

[3] = Non-specific binding to the matrix (Matrigel, without cells); format: in vitro ADME; conditions: no cells
Description: Due to the presence of Matrigel (Reduced Growth Factors), pre-coated well plates were treated in parallel, with the same experimental conditions of the main experiment, but in the absence of cells. In order to determine if and how CPF was sequestered by proteins in Matrigel, the content of the pre-coated wells was transferred into amber glass vials with screw caps and stored at −80 °C until HPLC analysis. For all these analyses, 4 biological replicates were carried out.

[4] = system: hiPSC-derived NSCs undergoing differentiation; experiment: Synaptogenesis by immunocytochemistry and HCI (overlapping SYP+/PSD95+ puncta); format: cell-based, human; conditions: 14 days, concentrations ≤ IC20
Description: (§1) After 14 days of treatment with CPF at the nominal concentrations of 18.45, 21.21, 24.39, 28.05, 32.26, and 37.10 μM (37.10 μM equal to IC20), obtained considering a 1-to-1.15 dilution factor, cells were fixed with 4 % formaldehyde for 10 min and washed three times in PBS 1 × . After 15 min permeabilization with PBS 1X containing 0.1 % Triton-X-100 and 3,5 % bovine serum albumin (BSA), cells were further incubated with 3,5 % BSA and 1X PBS (blocking solution) for 15 min, to prevent nonspecific binding of antibodies, and then incubated at 4 °C overnight with primary antibodies in blocking solution. […] Neurite outgrowth and BDNF protein levels were assessed by staining the cells with an antibody specific for β-III-tubulin (mouse, 1:500, ThermoFisher), and one for BDNF (rabbit, 1:70, ThermoFisher). […] Mean fluorescence intensity and the relative percentages of immunocytochemically-defined cell types were quantified using the ArrayScan™ XTI High Content Platform (Cellomics) (ThermoFisher) and the ArrayScan algorithm 'Neuronal Profiling V4.1', as previously described. […] Other masks were applied to identify the neurites, their branch points, and the fluorescence intensity levels of SYP and PSD95 puncta, or BDNF protein. […]

BDNF protein = BDNF protein levels by immunocytochemistry and HCI; format: cell-based, human; conditions: 14 days of CPF treatment, dose-dependent, vs solvent control
Description: as §1

[5] = system: hiPSC-derived NSCs undergoing differentiation; experiment: Proportion of neurons (β-III-Tubulin+) and astrocytes (GFAP+) by immunocytochemistry and HCI; format: cell-based, human; conditions: 14 days
Description: as §1

[6] = system: hiPSC-derived NSCs undergoing differentiation; experiment: Spontaneous electrical activity by multi-well MEA; format: cell-based, human
Description: Cells were plated in complete ND medium onto polyethyleneimine (PEI)- and laminin-coated 24-well-MEA plates (24-Well Plate Glass (24W300/30G-288) V.232, 12 gold microelectrodes/well) (MultiChannel Systems) (5 × 10^5 cells/well), and on day 7 of differentiation cells were treated with CPF at 21 μM or solvent control (0.1 % DMSO) for 14 days. Electrical activity was evaluated before adding CPF (0d) or solvent control, and monitored after 3, 7, 10 and 14 days of treatment (Fig. 2). Representative electrode recordings were considered for the analysis of spike rate (number of spikes/sec), burst count (considering a burst as a train of at least 5 spikes occurring within 100 millisec), and network burst count (the number of bursts that resulted synchronized among all 12 electrodes). Electrical activity was recorded using the Multi-well MEA-System, considering a sampling rate of 20,000 Hz, a low-pass filter cutoff frequency of 3500 Hz, and a high-pass filter cutoff frequency of 100 Hz. Data represent the average of at least three biological replicates.

[7] = system: hiPSC-derived NSCs undergoing differentiation; design: method as in PMID 32093744; conditions: 14-day treatment, resazurin, cited from earlier work
[8] = cited from earlier work
[9] = 21 μM (IC5), significant after 7-day treatment

CCOP(=S)(OCC)Oc1nc(Cl)c(Cl)cc1Cl [CPF, Chlorpyrifos]
Solubility and stability in aqueous medium solutions and DMSO ([1]; maximum concentration, 37 °C, controlled pH, different incubation times): soluble and chemically stable | Recovery from medium ([1]; serum-free medium): 108.2 ± 18.6% | Cross-contamination among wells ([2]; first day of treatment): Not detectable | Cross-contamination among wells ([2]; last day of treatment): Not detectable | Bound-to-plastic fraction (Adsorption to plastic; first day of treatment): 0−8.4% | Bound-to-plastic fraction (Adsorption to plastic; last day of treatment): 7.5−16.5% | Bound-to-matrigel fraction ([3]; first day of treatment): 1.7−4.2% | Bound-to-matrigel fraction ([3]; last day of treatment): 5.8−6.5% | number of synapses (co-localization of SYP+/PSD95+ puncta) [4]: remarkable dose-dependent decrease | increase of BDNF protein levels (BDNF protein): ≤ 55% | increase of neuronal cell percentage (β-III-Tubulin+) ([5]; all tested concentrations): 10–15% | increase of GFAP+ cell percentage vs solvent control ([5]; concentration dependent): 2- to 2.8 fold | number of bursts [6, 9]: modest decrease | spike rate [6, 9]: modest decrease | number of synchronized network bursts ([6]; 21 μM, starting from the 10th day of treatment): decrease | IC5 (nominal concentration causing 5 % decrease of viability) [7]: 21 µM | IC20 ([7]; nominal concentration, read-out: IC20 (viability)): 37.1 µM | exposure in new-borns, concentration in blood [8]: up to 4.9 μM | exposure in new-borns, concentration in meconium [8]: 23.6 µM
